Source: patent US10792331B2, “Methods for reducing cardiotoxicity from chemotherapy by administering humanin analog compositions” (LOS ANGELES BIOMEDICAL RESEARCH INSTITUTE AT HARBOR-UCLA …, priority 2015, dated 2020)
“Also recorded” adds a separate entry of the source. Where two headings read alike, the source gives them in different places. Ends that are not written are not given here.

Assays:
[1] = system: Dox-induced cardiotoxicity mouse model; assay: Example 3: M-mode echocardiography of cardiac function
[2] = Example 1: DOX ± HNG in B16 cell transplanted mice study, body weight and survival; conditions: for Body weight: B16 inoculated C57BL/6 male mice, DOX 5 mg/Kg weekly IP, HNG 5 mg/Kg daily IP
Protocol: Mouse B16 melanoma cells were cultured in 75 cm^2 flasks and incubated at 37° C. in a humidified chamber with 5% CO2 to generate enough cells for inoculating 10,000 cells/mouse×40 mice. After 5-7 days culture, B16 cells were collected and cell viability determined using the Trypan Blue stain and the number of living cells were counted under microscope.
Treatment Schedule: 7 weeks old C57BL/6 male mouse, control without tumor inoculation (n=6) and four other groups (n=10 each group) received B16 tumor cells (10,000/mouse) injection under the skin in the right flank. One group was not treated; another group received HNG IP injection, 5 mg/Kg BM, daily×40 days (HNG); the third group received Doxorubicin (DOX), IP injection, 5 mg/Kg BW, weekly×6 injections; and the last group DOX+HNG (Table 5).
The mice in the DOX treated group would receive 6 weekly injections of DOX and daily injection of HNG until Day 40. Body weights and tumor cell injection site were checked 3 times per week. Echocardiogram was scheduled at day 26 and repeated at day 40. Twenty four hours after echocardiogram examination, animals were sacrificed; whole blood, plasma, epididymis, heart, lung, testis, liver, spleen, kidney, intestine, muscle, skin, and femur bone were collected. Sperm in the cauda epididymis were counted and COMET assay for DNA damage of sperm assessed. Whole blood was collected for CBC analysis and plasma saved for measurement of HNG level or other bio-parameters. Testes were fixed in Bouin's or formaldehyde for immunohistochemistry and TUNEL analyses.

[3] = patients with cancer, cited from earlier work
[4] = system: nuclear-gene-encoded mitochondrial gene expression; assay: Example 3: mitochondrial gene focused qRT-PCR array of mouse hearts
[5] = system: DOX-induced cardiotoxicity; assay: Example 1: heart weight and echocardiogram in DOX ± HNG treated mice; format: in vivo, mouse
Protocol: The heart containing left and right ventricles were fixed with formalin for hematoxylin/eosin and trichrome staining and TUNEL to detect apoptotic cell. Heart sections were saved for immunohistochemistry. Pieces of left ventricle were fixed with gluteraldehyde for later mitochondria analysis by EM. Heart was snapped frozen and stored at −80 degrees (left and right atriums plus the rest of ventricles) for molecular studies (e.g. ANP/BNP).
Echocardiogram was performed on three mice from each group on day 32, and the rest of the mice on days 34 and 38. […] However when corrected for body weight, the heart: body weight ratio was not different among the groups (FIGS. 3A & 3B.)

[6] = system: DOX induced cardiotoxicity; assay: Example 2: echocardiogram ejection fraction, Dox, HNG and DRZ alone or in combinations; format: in vivo, mouse
Protocol: In this second experiment, adult male mice were used. These mice received for 8 weeks IP injections of saline daily (control), Doxorubicin (DOX 3 mg/week IP for 8 injections), HNG 5 mg/day IP), Dexrazoxane (DRZ 60 mg/week IP at the same time as Doxorubicin) either alone or in combinations as shown in FIG. 5. All animals received 8 weeks of injections.

[7] = Example 3: outcome and general health (deaths, body weight, heart weight)
[8] = system: uncoupling protein 2 (Ucp2); assay: Example 3: Ucp2 protein by ProteinSimple (Wes) assay in ventricle lysates; format: in vivo, mouse
Protocol: Left ventricle samples from mice were sonicated in RIPA buffer (Sigma) supplemented with EDTA-free protease inhibitor cocktail tablets (Roche), and cell debris removed by centrifugation. The protein concentration was analyzed by Bio-Rad Protein Assay and measured by Beckman Du-640 Spectrophotometer.
Protein measurement for the uncoupling protein 2 (Ucp2) was performed using ventricle tissue lysates from control, Dox only, Dox+HNG, Dox+DRZ, and Dox+HNG+DRZ treated mice. Protein expression was quantified by Wes Separation Module with 25 Capillary Cartridges for 12-230 kDa (Wes®). Proteins (4 microgram/sample) were separated through a size-resolving matrix in capillaries, immobilized to the inner capillary wall, incubated with anti-Ucp2 rabbit monoclonal antibody (Cell Signaling) at concentration of 1 μg/ml and anti-rabbit secondary antibodies before detection using chemiluminescence. Signals reflected as the area under the curve of Ucp2 protein were generated automatically at the end of the run. The Ucp2 protein levels were quantified by a ratio of the area under the curve from each sample that was normalized by the corresponding area under the curve of the corresponding total protein.

[9] = mouse, in vivo
[10] = system: Atrial Natriuretic Factor (ANF); assay: Example 3: real-time PCR of ANF transcripts in left ventricular tissue; conditions: for expression levels of ANF mRNA: heart, compared to control
cardiac fibrosis [11] = assay: Example 3: Masson's Trichrome quantification of fibrosis in hearts; conditions: for cardiac fibrosis: compared to controls
cardiomyocytes [12] = assay: Example 3: cardiomyocyte apoptosis by tropomyosin/TUNEL co-localization; conditions: for cardiomyocytes apoptosis: ten weeks, compared to control
[13] = cited from earlier work
membrane receptor = conditions: cited from earlier work
cells = conditions: compared with HN; cited from earlier work
BAX = BAX (Homo sapiens, UniProt Q07812); conditions: cited from earlier work
IGFBP-3 = IGFBP-3 (Homo sapiens, UniProt P17936); conditions: cited from earlier work
cardiac fibrosis [14] = conditions: mouse, in vivo
[15] = system: Dox-induced cardiotoxicity mouse model; conditions: in vivo
cardiomyocytes [16] = conditions: mouse, in vivo
[17] = system: Atrial Natriuretic Factor (ANF); conditions: mouse, in vivo
[18] = 84 genes examined, threshold of 1.1 fold
[19] = positive up-regulation, negative down-regulation
[20] = echocardiogram days 32-38, vs non-treated and HNG treated mice

IGFBP-3, sequence (P17936 28-291, species assumed): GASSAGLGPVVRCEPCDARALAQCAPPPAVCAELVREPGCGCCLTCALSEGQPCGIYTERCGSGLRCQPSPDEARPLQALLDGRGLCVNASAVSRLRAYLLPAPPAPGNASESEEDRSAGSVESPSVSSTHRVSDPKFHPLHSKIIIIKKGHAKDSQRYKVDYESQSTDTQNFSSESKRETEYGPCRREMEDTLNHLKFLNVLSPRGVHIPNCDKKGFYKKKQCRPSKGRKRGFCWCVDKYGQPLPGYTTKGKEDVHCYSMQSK
BAX, sequence (Q07812 whole entry, species assumed): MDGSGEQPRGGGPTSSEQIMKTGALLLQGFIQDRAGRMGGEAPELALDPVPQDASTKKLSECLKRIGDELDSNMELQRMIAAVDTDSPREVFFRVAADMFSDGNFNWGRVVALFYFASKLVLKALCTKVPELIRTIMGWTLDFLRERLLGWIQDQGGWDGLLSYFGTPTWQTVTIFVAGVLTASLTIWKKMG

Compound: COc1cccc2c1C(=O)c1c(O)c3c(c(O)c1C2=O)C[C@@](O)(C(=O)CO)C[C@@H]3O[C@H]1C[C@H](N)[C@H](O)[C@H](C)O1 [DOX, Doxorubicin]
- ejection fraction ([1]; 9.5 weeks after treatment): significantly decreased
- fractional shortening ([1]; 9.5 weeks after treatment): significantly decreased
- heart rate ([1]; 9.5 weeks after treatment): significantly decreased
- left ventricle posterior wall thickening ([1]; 9.5 weeks after treatment): significantly decreased
- time after Dox treatment until Dox-induced cardiac dysfunction occurred ([1]; accumulative dose of 24 mg/kg body weight in mice): ≥ 8 weeks
- Body weight [2]: started to lose weight at about day 8 to 10; also recorded: significant loss in weight; also recorded: decreased weight
- Survival (mice survived / mice in group) ([2]; DOX halted after 4th injection, up to day 38-40): 4/10
- Body weight loss, DOX vs DOX+HNG ([2]; day 29, p<0.05): lost more weight than the mice treated with DOX+HNG; also recorded: losing significantly more weight
- incidence of congestive heart failure ([3]; cumulative dose of 400 mg/m^2): 3 to 5%
- incidence of congestive heart failure ([3]; cumulative dose of 550 mg/m^2): 7 to 26%
- number of genes down-regulated as compared to control [4, 18]: 5 genes
- number of genes up-regulated as compared to control [4, 18]: 78 genes
- number of genes upregulated as compared to control ([4]; 84 genes examined, threshold of 2-fold): 12 genes
- Bbc3 Dox-induced gene expression (Fold changes as compared to control) [4, 19]: 3.27 Fold changes
- Bcl2 Dox-induced gene expression (Fold changes as compared to control) [4, 19]: 2.23 Fold changes
- Cox18 Dox-induced gene expression (Fold changes as compared to control) [4, 19]: 2.01 Fold changes
- NefI Dox-induced gene expression (Fold changes as compared to control) [4, 19]: 3.07 Fold changes
- Sfn Dox-induced gene expression (Fold changes as compared to control) [4, 19]: 2.55 Fold changes
- Slc25a17 Dox-induced gene expression (Fold changes as compared to control) [4, 19]: 2.00 Fold changes
- Slc25a20 Dox-induced gene expression (Fold changes as compared to control) [4, 19]: 2.53 Fold changes
- Slc25a21 Dox-induced gene expression (Fold changes as compared to control) [4, 19]: 2.35 Fold changes
- Slc25a22 Dox-induced gene expression (Fold changes as compared to control) [4, 19]: 3.12 Fold changes
- Slc25a23 Dox-induced gene expression (Fold changes as compared to control) [4, 19]: 5.83 Fold changes
- Ucp2 Dox-induced gene expression (Fold changes as compared to control) [4, 19]: 2.03 Fold changes
- Ucp3 Dox-induced gene expression (Fold changes as compared to control) [4, 19]: 2.73 Fold changes
- Ucp2 and Ucp3 mRNA expression ([4]; qRT-PCR, heart): increased Ucp2 and Ucp3 mRNA expression
- Heart weight ([5]; Example 1 mice at sacrifice): significantly lower than the non-treated and HNG treated mice; also recorded: smaller hearts than non-treated and HNG treated mice
- ejection fraction [5, 20]: decrease in ejection fraction; also recorded: lower ejection fraction
- fractional ventricular shortening [5, 20]: decrease; also recorded: lower fractional shortening
- Ejection fraction (EF) ([6]; adult male mice, DOX 3 mg/week IP for 8 injections, FIG. 6): highly significant decrease in EF
- mice died before the termination of the experiment ([7]; 10 mice per group, 10 weeks): three
- Ucp2 protein expression ([8]; compared to control): significantly decreased Ucp2 protein expression
- body weight (BW) at the end of 10 weeks [9]: significantly decreased body weight
- expression levels of ANF mRNA [10]: significantly increased
- cardiac fibrosis (cardiac fibrosis [11]): significantly induced a cardiac fibrosis response
- cardiomyocytes apoptosis (cardiomyocytes [12]): significantly increased cardiomyocytes apoptosis

Compound: C[C@@H](CN1CC(=O)NC(=O)C1)N1CC(=O)NC(=O)C1 [DRZ, Dexrazoxane]
- Dox-induced cardiac dysfunction, protective effect ([1]; Dox-treated mice, summary): improved heart function impaired by Dox treatment
- cardiac parameters (heart rate, LV posterior wall thickening, fractional shortening, ejection fraction) ([1]; without Dox, compared to controls across the treatment period): did not show any altered cardiac parameters
- Dox-induced Ucp2 and Ucp3 mRNA expression, effect of co-treatment ([4]; qRT-PCR, Dox-treated mice): reversed Dox-induced Ucp2 and Ucp3 mRNA expression to control levels
- DOX-induced decrease in EF, effect of co-treatment ([6]; DOX treated mice, HNG 5 mg/day IP, DRZ 60 mg/week IP): ameliorated
- Dox-induced BW loss, effect of co-treatment ([7]; in Dox-treated mice): attenuated the Dox-induced BW loss
- Ucp2 protein suppressed by Dox, effect of co-treatment ([8]; Dox-treated mice): significantly normalized Ucp2 protein suppressed by Dox to control levels
- testicular toxicity ([13]; has been shown): induce testicular toxicity
- significant adverse events ([13]; patients receiving high doses of anthracyclines): decreased granulocytes and platelets
- body weight (BW) at the end of 10 weeks [9]: no significant adverse effect on body weight
- Dox-increased ANF expression, effect of addition ([10]; added to Dox-treated mice): returned expression of ANF to control levels
- expression levels of ANF mRNA [10]: did not significantly altered ANF transcripts
- cardiac fibrosis (cardiac fibrosis [11]): no changes of fibrosis
- Dox-induced cardiac fibrosis, effect of co-treatment (cardiac fibrosis [11]; in Dox-treated mice): did not reduce Dox-induced cardiac fibrosis
- Dox-induced cardiomyocytes apoptosis, effect of co-treatment (cardiomyocytes [12]; Dox-treated mice, ten weeks after treatment): no markedly protective effect
- cardiomyocytes apoptosis (cardiomyocytes [12]): did not induce significant levels of cardiomyocytes apoptosis

Compound: HN-C8A: HN mutant, Cys8 to Ala; MAPRGFSALLLLTSEIDLPVKRRA (SEQ ID NO: 33)
- Characteristics: membrane receptor binding (membrane receptor): Loss of membrane receptor
- Cytoprotective Action (cells): Not effective, prevents HN self-

Compound: HN-C8P: HN mutant, Cys8 to Pro (MAPRGFSPLLLLTSEIDLPVKRRA; UniProt Q8IVG9 1-24, looked up, variant C8P)
- Characteristics: BAX binding (BAX): Loss of BAX binding
- Cytoprotective Action (cells): Not effective, blocks intracellular

Compound: HN-F6A: HN mutant, Phe6 to Ala (MAPRGASCLLLLTSEIDLPVKRRA; UniProt Q8IVG9 1-24, looked up, variant F6A)
- Cytoprotective Action (cells): Similar/more effective than HN
- Characteristics: IGFBP-3 binding (IGFBP-3): Loss of IGFBP-3 binding

Compound: HN-L12A: HN mutant, Leu12 to Ala (MAPRGFSCLLLATSEIDLPVKRRA; UniProt Q8IVG9 1-24, looked up, variant L12A)
- Cytoprotective Action (cells): HN antagonist, forms inactive

Compound: HN-S7A: HN mutant, Ser7 to Ala; MAPRGFACLLLLTSEIDLPVKRRA (SEQ ID NO: 35)
- Characteristics: membrane receptor binding (membrane receptor): Loss of membrane receptor
- Cytoprotective Action (cells): Not effective, prevents HN self-

Compound: MAPRGFSCLLLLTGEIDLPVKRRA [HNG]
- Body weight [2]: gained weight; also recorded: increased weight
- cardiac fibrosis (cardiac fibrosis [14]): no changes of fibrosis
- body weight (BW) at the end of 10 weeks ([7]; surviving mice, compared to control): no significant adverse effect on body weight
- cardiac parameters (heart rate, LV posterior wall thickening, fractional shortening, ejection fraction) [15]: did not show any altered cardiac parameters
- cardiomyocytes apoptosis (cardiomyocytes [16]): did not induce significant levels of cardiomyocytes apoptosis
- expression levels of ANF mRNA [17]: did not significantly altered ANF transcripts
